According to patent US11358931B2, “Selective androgen receptor modulators (SARMs) and uses thereof” (priority 2007, dated 2022):

Target: T1, hGR (Homo sapiens, UniProt P04150)
T1 construct: expressed in transfected cells
T1 sequence (P04150 1-777): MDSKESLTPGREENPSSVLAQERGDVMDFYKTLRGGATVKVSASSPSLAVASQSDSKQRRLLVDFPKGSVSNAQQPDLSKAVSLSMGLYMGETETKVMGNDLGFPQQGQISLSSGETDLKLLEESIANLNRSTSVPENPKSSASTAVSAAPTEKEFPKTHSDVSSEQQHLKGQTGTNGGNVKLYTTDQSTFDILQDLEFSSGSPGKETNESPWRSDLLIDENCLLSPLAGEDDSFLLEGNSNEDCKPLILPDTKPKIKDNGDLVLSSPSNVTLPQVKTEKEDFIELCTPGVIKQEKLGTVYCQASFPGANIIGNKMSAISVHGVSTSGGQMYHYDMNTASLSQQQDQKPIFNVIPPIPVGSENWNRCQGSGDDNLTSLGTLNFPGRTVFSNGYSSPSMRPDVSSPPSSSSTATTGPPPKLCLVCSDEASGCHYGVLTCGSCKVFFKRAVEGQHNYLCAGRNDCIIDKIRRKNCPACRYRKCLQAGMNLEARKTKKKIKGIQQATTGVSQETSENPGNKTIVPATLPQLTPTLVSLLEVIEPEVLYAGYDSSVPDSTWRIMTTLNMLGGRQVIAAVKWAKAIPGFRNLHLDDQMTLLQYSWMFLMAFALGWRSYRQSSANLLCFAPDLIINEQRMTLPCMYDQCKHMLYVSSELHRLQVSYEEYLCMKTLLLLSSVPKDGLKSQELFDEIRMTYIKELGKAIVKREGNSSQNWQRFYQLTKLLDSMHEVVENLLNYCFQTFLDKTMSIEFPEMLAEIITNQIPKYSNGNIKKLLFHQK
Assay: Co-transfection assay, other nuclear receptors: hGR
Type: cell-based
Text: An exemplary co-transfection assay is the luciferase reporter assay (Evans, Science 240: 889-895 (1988), Berger et al., J Steroid Biochem Mol Biol 41: 733-738 (1992)) can be used to establish the ability of a compound of formulae I, II or III to activate (agonist activity) or repress (antagonist activity) the ability of the human androgen receptor (hAR) to induce gene expression. A human cell line containing endogenously expressed hAR (e.g., MDA-MB-453 cells, derived from a human mammary carcinoma, American Tissue Type Culture Collection [ATCC] HTB 131) can be transfected with an androgen responsive luciferase reporter plasmid to measure the level of cross-reactivity of the compound on other nuclear receptors (such as the glucocorticoid receptor (GR), estrogen receptor (ER), mineralocorticoid receptor (MR), progesterone receptor (PR), retinoid receptor (RAR), retinoid X receptor (RXR), peroxisome proliferator activating receptors alpha (PPARα), gamma (PPARγ) and delta (PPARδ), liver X receptor (LXR), farnesyl X receptor (FXR) and the pregnane X receptor (PXR)). In the assay, luciferase reporter plasmids containing the cDNA for firefly luciferase (LUC) under the control of a conditional promoter containing hormone response elements recognized by the appropriate nuclear receptor are co-transfected into cells with the nuclear receptor expression plasmid. […]

Question: What does the source list for N#Cc1ccc(N2CCC[C@@H]2[C@@H](O)C(F)(F)F)cc1C(F)(F)F [Compound 102, R,R-4-(2-(1-Hydroxyl-2,2,2-trifluoroethyl)-pyrrolidinyl)-2-trifluoromethyl-benzonitrile]?
Answer: IC50: 1600 nM; antagonism of dexamethasone-induced activation of hGR (efficacy) (dexamethasone-induced activation): 60%
